From US20130095189A1, “COMPOSITION AND METHOD OF PHYTONUTRIENTS FOR METABOLIC PROGRAMMING EFFECTS” (priority 2011, published 2013)
“Also recorded” adds a separate entry of the source.

Tests used:
Type in all cases: cell-based, human
UGT (UGT1A) = assay: UGT protein expression by immunoblotting in skin fibroblast cell models; settings: 24 h
Experimental: (§1) Treated and control cells are washed twice with ice cold phosphate buffered saline (PBS) and then incubated for 30 min in the Nonidet P-40 (NP-40) buffer (20 mM Tris-HCl, pH 8, 150 mM NaCl, 10% glycerol, 1% NP-40) containing one tablet of complete mini-EDTA-free protease inhibitor cocktail (Roche) in 10 ml buffer. Cells are harvested by scraping and the homogenate is centrifuged at 13,684 g at 4° C. for 15 min. The supernatants are collected and frozen at −80° C. The protein concentrations are determined using Bradford reagent (Sigma) according to the manufacturer's instructions. 20 μg of protein lysate is resolved by 10% SDS-polyacrylamide gel and transferred onto polyvinylidenedifluoride membranes (Bio-Rad) with a semidry transfer cell (Trans-Blot; Bio-Rad). Membranes are blocked for 1 hour at room temperature or overnight at 4° C. with Marvel fat-free milk powder (5% w/v), Tween 20 (0.05%, v/v) in PBS. Proteins of interest are visualized by exposing membranes to primary antibodies in milk for 2 hours at room temperature. Dilutions of antibodies are rabbit polyclonal GSTA1, 1:2000, goat polyclonal NQO1 1:1000 and goat polyclonal UGT1A 1:1000. Following primary antibody incubation membranes are incubated with suitable HRP-conjugated secondary antibody and signals are detected using an enhanced chemiluminescence kit (GE Healthcare) according to manufacturer's instructions. β-actin level is determined as loading control and bands are visualized using Fujifilm LAS3000 Imager.

GST (GSTA1) = assay: GST protein expression by immunoblotting in skin fibroblast cell models; settings: 24 h
Experimental: as §1

NQO1 = NQO1 protein expression by immunoblotting in skin fibroblast cell models; settings: 24 h
Experimental: as §1

GST mRNA = GST mRNA expression by TaqMan real-time PCR in skin fibroblast cell models
Excerpt: (§2) Total cellular RNA is isolated using Genelute Mammalian Total RNA Kit (Sigma-Aldrich) according to the manufacturer's instructions. […] Standard curves are constructed with serial dilutions of control sample and analyzed using ABI software. Data are normalized against a house keeping gene, 18S ribosomal RNA. Gene expression is quantified by ^ΔΔCt method where fold of induction=2^-ΔΔ[…]., Analysis of relative gene expression data using real-time quantitative PCR and the 2(-Delta Delta C(T)) Method. Methods 2001. 25, 402-408).

UGT mRNA = UGT mRNA expression by TaqMan real-time PCR in skin fibroblast cell models
Excerpt: as §2

NQO1 mRNA = NQO1 mRNA expression by TaqMan real-time PCR in skin fibroblast cell models
Excerpt: as §2

[1] = 1 month old cell model, 5, 10, 20 μM
[2] = 1 month old cell model, control=1
[3] = adult cell model, highest concentration (20 μM), control=1
[4] = cell model, all concentrations tested

Compound | UGT protein expression (immunoblot, ratio to beta-actin) (UGT (UGT1A); cell model, higher doses) | GST protein expression (immunoblot, ratio to beta-actin) (GST (GSTA1); cell model, higher doses) | NQO1 protein expression (immunoblot, ratio to beta-actin) (NQO1; cell model, higher doses) | GST mRNA expression relative to control (GST mRNA; adult cell model, 5, 10, 20 μM) | GST mRNA expression relative to control (GST mRNA; infant cell models) | UGT mRNA expression relative to control (UGT mRNA; adult cell model, 5, 10, 20 μM) | NQO1 mRNA expression relative to control (NQO1 mRNA; adult cell model, 5, 10, 20 μM) | NQO1 mRNA expression relative to control (NQO1 mRNA; infant cell models) | GST protein expression (immunoblot, ratio to beta-actin) (GST (GSTA1); adult cell model, 5, 10, 20 μM) | NQO1 protein expression (immunoblot, ratio to beta-actin) (NQO1; adult cell model, higher dose) | upregulation of GST mRNA compared to control (GST mRNA; [2]) [fold] | NQO1 mRNA expression relative to control (NQO1 mRNA; [1]) | other results
C[S+]([O-])CCCCN=C=S (stereo not drawn) [sulforaphane, 4-methylsulfinylbutyl isothiocyanate] | significantly upregulated | significantly upregulated | significantly upregulated | significant increase | significantly increased; also recorded: significant increases | significant increase | significant increase | significant increases | – | – | – | – | UGT protein expression (immunoblot, ratio to beta-actin) (UGT (UGT1A); [1]): significant induction; UGT protein expression (immunoblot, ratio to beta-actin) (UGT (UGT1A); adult cell model, 5, 10, 20 μM): affected; NQO1 protein expression (immunoblot, ratio to beta-actin) (NQO1; adult cell model, 5, 10, 20 μM): significant upregulation; increase in NQO1 mRNA compared to control (NQO1 mRNA; infant cell models, control=1): 6-35 fold
catechin | significantly upregulated | significantly upregulated | significantly upregulated | dose-response upregulation | significant increases | an increase | dose-response upregulation | significant increases | increases | significant upregulation | 3.7 | unaffected | UGT mRNA expression relative to control (UGT mRNA; [1]): unaffected; increase in NQO1 mRNA expression (NQO1 mRNA; cell model, control=1): 4.5 fold
O=c1c(O)c(-c2ccc(O)c(O)c2)oc2cc(O)cc(O)c12 [quercetin] | – | – | – | significant dose-dependent increase | – | significant dose-dependent increase | – | – | increases | significant upregulation | 3.9 | significantly increased | GST mRNA expression relative to control (GST mRNA; [1]): significantly increased; upregulation of GST mRNA (GST mRNA; [3]): 7.4 fold; GST mRNA expression relative to control (GST mRNA; [4]): do not demonstrate any significant changes; upregulation of UGT mRNA (UGT mRNA; [3]): 5.5 fold; UGT mRNA expression relative to control (UGT mRNA; [4]): do not demonstrate any significant changes; upregulation of NQO1 mRNA compared to control (NQO1 mRNA; [2]): 7.2 fold; NQO1 mRNA expression relative to control (NQO1 mRNA; [4]): do not demonstrate any significant changes
